According to US20220169680A1 (priority 2018, published 2022):
Entries after “also recorded” stand apart in the source; their conditions may differ. Read-outs that look alike come from different tables or passages of the source.

Tests used:
Format in all cases: cell-based
[1] = system: MRCS cells
[2] = system: A549 cells
[3] = system: HeLa cells
[4] = system: 293T cells
[5] = system: A549 cells; remark: listed apart in the source
[6] = system: 293T cell, HUVEC cell, HCT-116 cell, MKN-45 cell, MRCS cell, U397 cell and ESF-1 cell
[7] = system: A549 cells; remark: listed apart in the source
[8] = system: A549 cells; remark: listed apart in the source
[9] = system: A549 cells; remark: listed apart in the source
[10] = system: 3′ UTR region of RELA gene
[11] = system: HEK293T cells
[12] = system: A549 cells; remark: listed apart in the source
[13] = system: A549 cells; remark: listed apart in the source

## CIYRRLKYGLKRGPSTEG [Jilin-2004(H5N1)-M2-50-67]
[1]
  cell penetration properties: consistent with the results obtained using A549 cells
[2]
  cell entry: entered A549 cells
  cell entry at lower concentrations: could still enter A549 cells
[3]
  cell penetration properties: consistent with the results obtained using A549 cells

## DRFFFKRIFRRFKFRLKRRPST [Jilin-2004(H5N1)-M2-44-65 mut12]
[1]
  cell-penetrating peptide function compared with the parent polypeptide: stronger than that of the parent Jilin-2004(H5N1)-M2-44-65 polypeptide
[4]
  cell-penetrating peptide function compared with the parent polypeptide: stronger than that of the parent Jilin-2004(H5N1)-M2-44-65 polypeptide
[2]
  cell-penetrating peptide function compared with the parent polypeptide: stronger than that of the parent Jilin-2004(H5N1)-M2-44-65 polypeptide

## DRFFFKRIYRRLKYRLKRRPKV [Jilin-2004(H5N1)-M2-44-65 mut9]
[1]
  cell-penetrating peptide function compared with the parent polypeptide: stronger than that of the parent Jilin-2004(H5N1)-M2-44-65 polypeptide
[4]
  cell-penetrating peptide function compared with the parent polypeptide: stronger than that of the parent Jilin-2004(H5N1)-M2-44-65 polypeptide
[2]
  cell-penetrating peptide function compared with the parent polypeptide: stronger than that of the parent Jilin-2004(H5N1)-M2-44-65 polypeptide

## DRFFFKRIYRRLKYRLKRRPST [Jilin-2004(H5N1)-M2-44-65 mut8]
[1]
  cell-penetrating peptide function compared with the parent polypeptide: stronger than that of the parent Jilin-2004(H5N1)-M2-44-65 polypeptide
[4]
  cell-penetrating peptide function compared with the parent polypeptide: stronger than that of the parent Jilin-2004(H5N1)-M2-44-65 polypeptide
[2]
  cell-penetrating peptide function compared with the parent polypeptide: stronger than that of the parent Jilin-2004(H5N1)-M2-44-65 polypeptide
[5]
  ability to carry small RNA compared with the other two polypeptides tested: even stronger
  carrying Cy3-labeled small RNA into cells: can carry small RNA into cells
  effect compared with transfection reagent RNAiMax: stronger than that of the transfection reagent RNAiMax

## DRLFFKCIYRRLKYGLKRGPST [Jilin-2004(H5N1)-M2-44-65]
[1]
  cell-penetrating peptide function compared with positive control TAT: stronger than that of the positive control TAT
[4]
  cell-penetrating peptide function compared with positive control TAT: stronger than that of the positive control TAT
[2]
  cell entry effect compared with existing cell-penetrating peptides (Table 4): significantly better cell entry effects than existing cell-penetrating peptides
  cell-penetrating peptide function compared with positive control TAT: stronger cell-penetrating peptide functions than that of the positive control TAT
  entry effect compared with other C-terminally truncated polypeptides: even better entry effects than other polypeptides
[5]
  carrying Cy3-labeled small RNA into cells: can carry small RNA into cells
  effect compared with transfection reagent RNAiMax: stronger than that of the transfection reagent RNAiMax
[6]
  entry effect compared with other fragments in different cell lines: even better entry effects
[7]
  carrying Cy3-labeled small RNA into cells (super high resolution microscope): can carry Cy3-labeled small RNA into A549 cells
  effect compared with RNAiMax or TAT (super high resolution microscope): stronger than that of the transfection reagent RNAiMax or of TAT
[8]
  ability to carry small RNA into cells compared with the transfection reagent RNAiMax group, qPCR: stronger than the transfection reagent RNAiMax group
  ability to carry small RNA into cells, qPCR: all had the ability to carry small RNA into cells

## DRLFFKCIYRRLKYGLKRRPST [Jilin-2004(H5N1)-M2-44-65 mut25]
[1]
  cell-penetrating peptide function compared with the parent polypeptide: stronger than that of the parent Jilin-2004(H5N1)-M2-44-65 polypeptide
[4]
  cell-penetrating peptide function compared with the parent polypeptide: stronger than that of the parent Jilin-2004(H5N1)-M2-44-65 polypeptide
[2]
  cell-penetrating peptide function compared with the parent polypeptide: stronger than that of the parent Jilin-2004(H5N1)-M2-44-65 polypeptide

## DRLFFKCIYRRLKYRLKRRPST [Jilin-2004(H5N1)-M2-44-65 mut26]
[4]
  cell-penetrating peptide function compared with the parent polypeptide: stronger than that of the parent Jilin-2004(H5N1)-M2-44-65 polypeptide
[2]
  cell-penetrating peptide function compared with the parent polypeptide: stronger than that of the parent Jilin-2004(H5N1)-M2-44-65 polypeptide
[8]
  ability to carry small RNA into cells compared with the transfection reagent RNAiMax group, qPCR: stronger than the transfection reagent RNAiMax group

## DRLFFKRIYRRLKYRLKRRPST [Jilin-2004(H5N1)-M2-44-65 mut27]
[4]
  cell-penetrating peptide function compared with the parent polypeptide: stronger than that of the parent Jilin-2004(H5N1)-M2-44-65 polypeptide
[8]
  ability to carry small RNA into cells compared with the transfection reagent RNAiMax group, qPCR: stronger than the transfection reagent RNAiMax group

## FFKCIYRRLKYGLKRGPS [Jilin-2004(H5N1)-M2-47-64]
[1]
  cell penetration properties: consistent with the results obtained using A549 cells
[2]
  cell entry: entered A549 cells
  cell entry at lower concentrations: could still enter A549 cells
  cell entry effect compared with TAT positive control: stronger than that of the TAT polypeptide
[3]
  cell penetration properties: consistent with the results obtained using A549 cells

## RLFFKCAYRRLKYGLKRG [Jilin-2004(H5N1)-M2-45-62 mut51]
[9]
  cell-penetrating peptide function compared with the parent polypeptide (confocal imaging): stronger than that of the parent Jilin-2004(H5N1)-M2-45-62 polypeptide
[8]
  ability to carry small RNA into cells compared with the transfection reagent RNAiMax group, qPCR: stronger than the transfection reagent RNAiMax group

## RLFFKCIYRRLKYGLKRG [Jilin-2004(H5N1)-M2-45-62]
[10]
  ability to carry PGY-dsRNA-6 compared with positive control TAT: stronger than that of the positive control TAT
  carrying PGY-dsRNA-6 into cells and fulfilling its function (luciferase reporter): could all carry PGY-dsRNA-6 into cells and fulfill its function
[1]
  cell penetration properties: consistent with the results obtained using A549 cells
[2]
  cell entry: still had a significant cell entry effect; also recorded: entered A549 cells
  cell entry at lower concentrations: could still enter A549 cells
  cell entry effect compared with TAT positive control: stronger than that of the TAT polypeptide
  cell entry effect compared with existing cell-penetrating peptides (Table 4): significantly better cell entry effects than existing cell-penetrating peptides
  cell entry of FITC-labeled polypeptide: could achieve significant A549 cell entry at all concentrations tested
  cell-penetrating peptide effect: a good cell-penetrating peptide effect
  cell-penetrating peptide function compared with positive control TAT: stronger than that of the positive control TAT
  entry effect compared with FITC-labeled TAT (positive control): much stronger than FITC-labeled TAT polypeptide
[11]
  carrying NS1-GFP plasmid into cells and GFP expression: could carry NS1-GFP plasmid into HEK293 cells, and GFP protein was expressed in the nucleus
[6]
  entry effect compared with other fragments in different cell lines: even better entry effects
[12]
  ability to carry small RNA compared with TAT at the same concentration: significantly stronger
  carrying Cy3-labeled small RNA into cells: can carry small RNA into cells
[9]
  cell-penetrating peptide function (confocal imaging): all had cell-penetrating peptide functions
[3]
  cell penetration properties: consistent with the results obtained using A549 cells
[8]
  ability to carry small RNA (PGY-sRNA-26) into cells, qPCR: had the ability to carry small RNA into the cells
  ability to carry small RNA into cells compared with the transfection reagent RNAiMax group, qPCR: stronger than the transfection reagent RNAiMax group
  ability to carry small RNA into cells, qPCR: all had the ability to carry small RNA into cells
[13]
  ability to carry small RNA compared with TAT at the same concentration: significantly stronger
  carrying FAM-labeled small RNA into cells: can all carry small RNA into cells

## RLFFKCIYRRLKYGLKTG [Jilin-2004(H5N1)-M2-45-62 mut61]
[9]
  cell-penetrating peptide function compared with the parent polypeptide (confocal imaging): stronger than that of the parent Jilin-2004(H5N1)-M2-45-62 polypeptide
[8]
  ability to carry small RNA into cells compared with the transfection reagent RNAiMax group, qPCR: stronger than the transfection reagent RNAiMax group

## RLFFRRIYRRLRYGLKRG [Jilin-2004(H5N1)-M2-45-62 mut3]
[9]
  cell-penetrating peptide function compared with the parent polypeptide (confocal imaging): stronger than that of the parent Jilin-2004(H5N1)-M2-45-62 polypeptide

## RLFFRRIYRRLRYRLKRG [Jilin-2004(H5N1)-M2-45-62 mut4]
[9]
  cell-penetrating peptide function compared with the parent polypeptide (confocal imaging): stronger than that of the parent Jilin-2004(H5N1)-M2-45-62 polypeptide

## RLFFRRIYRRLRYRLRRG [Jilin-2004(H5N1)-M2-45-62 mut5]
[9]
  cell-penetrating peptide function compared with the parent polypeptide (confocal imaging): stronger than that of the parent Jilin-2004(H5N1)-M2-45-62 polypeptide
[8]
  ability to carry small RNA into cells compared with the transfection reagent RNAiMax group, qPCR: stronger than the transfection reagent RNAiMax group

## RLFFRRIYRRLRYRLRRR [Jilin-2004(H5N1)-M2-45-62 mut6]
[9]
  cell-penetrating peptide function compared with the parent polypeptide (confocal imaging): stronger than that of the parent Jilin-2004(H5N1)-M2-45-62 polypeptide

## RLFIKCIYRRLKYGLKRG [Jilin-2004(H5N1)-M2-45-62 mut48]
[9]
  cell-penetrating peptide function compared with the parent polypeptide (confocal imaging): stronger than that of the parent Jilin-2004(H5N1)-M2-45-62 polypeptide
[8]
  ability to carry small RNA into cells compared with the transfection reagent RNAiMax group, qPCR: stronger than the transfection reagent RNAiMax group

## RLFSKSIYR1FKHGLKRG [Caledonia/20/1999(H1N1)-M2-N-M-AH(45-62)]
[9]
  cell entry of rhodamine-labeled polypeptide: could all enter A549 cells

## RRFFFKCIYRRLKYGLKRGPST [Jilin-2004(H5N1)-M2-44-65 mut17]
[4]
  cell-penetrating peptide function compared with the parent polypeptide: stronger than that of the parent Jilin-2004(H5N1)-M2-44-65 polypeptide
[8]
  ability to carry small RNA into cells compared with the transfection reagent RNAiMax group, qPCR: stronger than the transfection reagent RNAiMax group

## SLFFKCIYRRLKYGLKRG [Jilin-2004(H5N1)-M2-45-62 mut45]
[9]
  cell-penetrating peptide function compared with the parent polypeptide (confocal imaging): stronger than that of the parent Jilin-2004(H5N1)-M2-45-62 polypeptide
[8]
  ability to carry small RNA into cells compared with the transfection reagent RNAiMax group, qPCR: stronger than the transfection reagent RNAiMax group
